From patent US10501461B2, “Tyrosine amide derivatives as Rho-kinase inhibitors” (CHIESI FARMACEUTICI S.P.A., priority 2017, dated 2019)

Tests used:
Rho kinase 2 (ROCK-II) = Rho kinase 2 (ROCK-II) (Homo sapiens, UniProt O75116); assay: In vitro Rho kinase inhibitory activity assay (ADP-Glo), Rho kinase 2; type: biochemical; conditions: 10 μM ATP, 25° C., expressed as range of activity
Outline: (§1)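 Human ROCK1 or ROCK2 was preincubated with compound for 30 min at 25 °C in 40 mM Tris pH7.5, 20 mM MgCl2, 0.1 mg/ml BSA, 50 μM DTT, 2.5 μM Myelin Basic Protein, 1% DMSO final. Reactions ran 1 hour with 10 μM ATP final; ADP-Glo luminescence gave IC50 by sigmoidal fit, Ki by Cheng-Prusoff.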

Rho kinase 1 (ROCK-I) = Rho kinase 1 (ROCK-I) (Homo sapiens, UniProt Q13464); assay: In vitro Rho kinase inhibitory activity assay (ADP-Glo), Rho kinase 1; type: biochemical; conditions: 10 μM ATP, 25° C., expressed as range of activity
Outline: as §1

Chain of Rho kinase 1 (ROCK-I) (Q13464 whole entry): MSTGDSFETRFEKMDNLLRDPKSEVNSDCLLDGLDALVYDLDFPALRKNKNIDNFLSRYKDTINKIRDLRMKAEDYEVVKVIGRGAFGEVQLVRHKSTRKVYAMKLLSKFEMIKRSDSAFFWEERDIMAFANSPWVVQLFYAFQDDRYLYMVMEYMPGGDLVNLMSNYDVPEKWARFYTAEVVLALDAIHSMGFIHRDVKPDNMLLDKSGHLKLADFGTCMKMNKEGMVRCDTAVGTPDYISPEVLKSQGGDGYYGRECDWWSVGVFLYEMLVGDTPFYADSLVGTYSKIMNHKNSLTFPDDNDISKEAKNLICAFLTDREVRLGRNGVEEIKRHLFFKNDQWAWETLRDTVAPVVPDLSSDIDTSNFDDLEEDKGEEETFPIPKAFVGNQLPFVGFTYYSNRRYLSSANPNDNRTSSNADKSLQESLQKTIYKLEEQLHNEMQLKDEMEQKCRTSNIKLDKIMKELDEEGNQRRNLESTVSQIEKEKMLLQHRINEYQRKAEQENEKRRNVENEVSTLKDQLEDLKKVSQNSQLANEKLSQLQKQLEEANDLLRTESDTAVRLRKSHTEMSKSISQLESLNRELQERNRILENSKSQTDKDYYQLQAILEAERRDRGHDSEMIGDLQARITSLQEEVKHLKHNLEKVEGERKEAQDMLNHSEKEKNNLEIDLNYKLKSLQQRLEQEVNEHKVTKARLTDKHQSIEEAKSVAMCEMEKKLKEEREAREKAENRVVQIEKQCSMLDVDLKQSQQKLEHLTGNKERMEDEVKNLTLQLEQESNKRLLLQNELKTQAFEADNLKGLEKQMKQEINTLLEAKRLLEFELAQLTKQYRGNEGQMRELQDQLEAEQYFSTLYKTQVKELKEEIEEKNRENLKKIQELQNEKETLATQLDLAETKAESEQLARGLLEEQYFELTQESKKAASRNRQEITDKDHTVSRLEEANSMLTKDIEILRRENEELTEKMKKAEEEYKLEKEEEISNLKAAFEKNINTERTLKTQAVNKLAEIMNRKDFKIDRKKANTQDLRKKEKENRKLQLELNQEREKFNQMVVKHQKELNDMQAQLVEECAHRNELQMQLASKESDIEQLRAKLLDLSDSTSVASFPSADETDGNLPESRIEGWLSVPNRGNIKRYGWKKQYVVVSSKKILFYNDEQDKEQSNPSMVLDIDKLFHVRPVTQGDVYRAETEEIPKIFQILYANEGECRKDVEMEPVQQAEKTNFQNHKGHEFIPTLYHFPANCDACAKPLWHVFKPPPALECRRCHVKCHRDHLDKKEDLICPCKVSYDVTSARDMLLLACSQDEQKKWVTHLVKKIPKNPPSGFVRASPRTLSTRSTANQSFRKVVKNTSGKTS
Chain of Rho kinase 2 (ROCK-II) (O75116 whole entry): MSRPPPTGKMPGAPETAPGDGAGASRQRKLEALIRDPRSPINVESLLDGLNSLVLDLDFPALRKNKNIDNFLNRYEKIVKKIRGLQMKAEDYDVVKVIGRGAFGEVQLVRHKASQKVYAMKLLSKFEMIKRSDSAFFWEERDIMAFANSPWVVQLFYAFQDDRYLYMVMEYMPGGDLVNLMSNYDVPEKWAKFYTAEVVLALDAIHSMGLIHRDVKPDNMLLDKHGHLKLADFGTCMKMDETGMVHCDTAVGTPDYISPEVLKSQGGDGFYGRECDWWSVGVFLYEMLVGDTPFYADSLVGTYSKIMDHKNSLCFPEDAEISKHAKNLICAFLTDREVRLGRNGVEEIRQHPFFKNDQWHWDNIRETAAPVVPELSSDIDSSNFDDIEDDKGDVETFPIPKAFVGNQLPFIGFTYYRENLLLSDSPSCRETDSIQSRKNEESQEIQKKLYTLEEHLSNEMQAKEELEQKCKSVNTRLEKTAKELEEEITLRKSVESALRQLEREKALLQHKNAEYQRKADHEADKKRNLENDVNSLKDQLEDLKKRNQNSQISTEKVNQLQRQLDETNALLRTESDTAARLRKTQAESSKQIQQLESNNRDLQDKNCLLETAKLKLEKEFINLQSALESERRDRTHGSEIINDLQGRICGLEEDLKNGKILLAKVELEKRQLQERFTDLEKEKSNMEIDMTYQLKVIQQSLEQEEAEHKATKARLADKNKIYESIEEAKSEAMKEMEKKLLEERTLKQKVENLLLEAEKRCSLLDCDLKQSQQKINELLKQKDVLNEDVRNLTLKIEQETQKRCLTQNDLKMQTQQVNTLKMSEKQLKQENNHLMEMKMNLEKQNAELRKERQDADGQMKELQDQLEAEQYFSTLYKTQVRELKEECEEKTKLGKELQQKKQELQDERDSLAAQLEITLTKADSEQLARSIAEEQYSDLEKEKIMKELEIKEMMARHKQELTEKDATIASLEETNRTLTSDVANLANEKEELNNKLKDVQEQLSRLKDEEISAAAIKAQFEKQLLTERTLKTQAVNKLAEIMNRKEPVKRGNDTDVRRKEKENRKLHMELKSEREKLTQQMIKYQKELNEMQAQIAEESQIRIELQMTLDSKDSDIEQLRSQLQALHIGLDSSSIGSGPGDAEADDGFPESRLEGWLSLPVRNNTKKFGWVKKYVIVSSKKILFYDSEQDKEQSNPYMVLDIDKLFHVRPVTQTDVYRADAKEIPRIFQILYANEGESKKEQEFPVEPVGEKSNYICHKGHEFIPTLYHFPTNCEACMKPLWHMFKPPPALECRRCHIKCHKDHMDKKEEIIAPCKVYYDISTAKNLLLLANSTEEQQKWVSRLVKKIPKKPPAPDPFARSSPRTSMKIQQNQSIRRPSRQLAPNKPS

Row | Ki (Rho kinase 2 (ROCK-II)) [nM] | Ki (Rho kinase 1 (ROCK-I)) [nM] | SMILES
1 | < 3 | 3 to 30 | Cc1c[nH]c2ncnc(Oc3ccc(C[C@H](N)C(=O)N4CCN(Cc5ccccn5)CC4)cc3F)c12 [Example 120, (S)-2-amino-3-(3-fluoro-4-((5-methyl-7H-pyrrolo[2,3-d]pyrimidin-4-yl)oxy)phenyl)-1-(4-(pyridin-2-ylmethyl)piperazin-1-yl)propan-1-one]
2 | < 3 | < 3 | Cc1c[nH]c2nccc(Oc3ccc(CC(N)C(=O)N4CCN(c5ccccn5)CC4)cc3F)c12 (stereo not drawn) [Example 80, 2-amino-3-(3-fluoro-4-((3-methyl-1H-pyrrolo[2,3-b]pyridin-4-yl)oxy)phenyl)-1-(4-(pyridin-2-yl)piperazin-1-yl)propan-1-one]
3 | < 3 | < 3 | N#Cc1c[nH]c2nccc(Oc3ccc(C[C@H](N)C(=O)N4CCN(Cc5ccccc5)CC4)cc3F)c12 [Example 220, (S)-4-(4-(2-amino-3-(4-benzylpiperazin-1-yl)-3-oxopropyl)-2-fluorophenoxy)-1H-pyrrolo[2,3-b]pyridine-3-carbonitrile]
4 | 3 to 30 | 3 to 30 | CN1C[C@@H]2C[C@H]1CN2C(=O)[C@@H](N)Cc1ccc(Oc2ccnc3[nH]cc(CO)c23)c(F)c1 [Example 211, (S)-2-amino-3-(3-fluoro-4-((3-(hydroxymethyl)-1H-pyrrolo[2,3-b]pyridin-4-yl)oxy)phenyl)-1-((1S,4S)-5-methyl-2,5-diazabicyclo[2.2.1]-heptan-2-yl)propan-1-one]
5 | < 3 | < 3 | Cc1ccc(CN2CCN(C(=O)C(N)Cc3ccc(Oc4ccnc5[nH]cc(C)c45)c(F)c3)CC2)cc1 (stereo not drawn) [Example 72, 2-amino-3-(3-fluoro-4-((3-methyl-1H-pyrrolo[2,3-b]pyridin-4-yl)oxy)phenyl)-1-(4-(4-methylbenzyl)piperazin-1-yl)propan-1-one]
6 | < 3 | < 3 | Cc1c[nH]c2ncnc(Oc3ccc(C[C@H](N)C(=O)N4C[C@@H](C)N(C)[C@@H](C)C4)cc3F)c12 [Example 129, (S)-2-amino-3-(3-fluoro-4-((5-methyl-7H-pyrrolo[2,3-d]pyrimidin-4-yl)oxy)phenyl)-1-((3S,5R)-3,4,5-trimethylpiperazin-1-yl)propan-1-one]
7 | < 3 | 3 to 30 | N[C@@H](Cc1ccc(Oc2ccnc3[nH]ccc23)cc1)C(=O)NC1CCCCC1 [Example 111, (S)-3-(4-((1H-pyrrolo[2,3-b]pyridin-4-yl)oxy)phenyl)-2-amino-N-cyclohexylpropanamide]
8 | < 3 | < 3 | N[C@@H](Cc1ccc(Oc2ccnc3[nH]cc(-c4ccc(O)cc4)c23)cc1)C(=O)N1CCN(Cc2ccccc2)CC1 [Example 200, (S)-2-amino-1-(4-benzylpiperazin-1-yl)-3-(4-((3-(4-hydroxyphenyl)-1H-pyrrolo[2,3-b]pyridin-4-yl)oxy)phenyl)propan-1-one]
9 | 3 to 30 | 3 to 30 | CN(Cc1ccccc1)C(=O)[C@@H](N)Cc1ccc(Oc2ccnc3[nH]ccc23)cc1 [Example 93, (S)-3-(4-((1H-pyrrolo[2,3-b]pyridin-4-yl)oxy)phenyl)-2-amino-N-benzyl-N-methylpropanamide]
10 | < 3 | < 3 | Cc1c[nH]c2nccc(Oc3ccc(CC(N)C(=O)NCc4cccs4)cc3F)c12 (stereo not drawn) [Example 61, 2-amino-3-(3-fluoro-4-((3-methyl-1H-pyrrolo[2,3-b]pyridin-4-yl)oxy)phenyl)-N-(thiophen-2-ylmethyl)propanamide]
11 | < 3 | < 3 | Cc1c[nH]c2nccc(Oc3ccc(CC(N)C(=O)Nc4cccc5cnccc45)cc3F)c12 (stereo not drawn) [Example 78, 2-amino-3-(3-fluoro-4-((3-methyl-1H-pyrrolo[2,3-b]pyridin-4-yl)oxy)phenyl)-N-(isoquinolin-5-yl)propanamide]
12 | < 3 | < 3 | N#Cc1c[nH]c2nccc(Oc3ccc(C[C@H](N)C(=O)NC4CCCCC4)cc3)c12 [Example 219, (S)-2-amino-3-(4-((3-cyano-1H-pyrrolo[2,3-b]pyridin-4-yl)oxy)phenyl)-N-cyclohexylpropanamide]
13 | < 3 | 3 to 30 | Cc1c[nH]c2nccc(Oc3ccc(CC(N)C(=O)NCCc4ccncc4)cc3F)c12 (single isomer, unassigned) [Example 57A, 2-amino-3-(3-fluoro-4-((3-methyl-1H-pyrrolo[2,3-b]pyridin-4-yl)oxy)phenyl)-N-(2-(pyridin-4-yl)ethyl)propanamide]
14 | < 3 | < 3 | Cc1c[nH]c2nccc(Oc3ccc(C[C@H](N)C(=O)NC4CN(C)C4)cc3F)c12 [Example 42, (S)-2-amino-3-(3-fluoro-4-((3-methyl-1H-pyrrolo[2,3-b]pyridin-4-yl)oxy)phenyl)-N-(1-methylazetidin-3-yl)propanamide]
15 | < 3 | < 3 | Cc1c[nH]c2nccc(Oc3ccc(CC(N)C(=O)N4CCN(C5CC5)CC4)cc3F)c12 (stereo not drawn) [Example 60, 2-amino-1-(4-cyclopropylpiperazin-1-yl)-3-(3-fluoro-4-((3-methyl-1H-pyrrolo[2,3-b]pyridin-4-yl)oxy)phenyl)propan-1-one]
16 | < 3 | < 3 | Cc1c[nH]c2nccc(Oc3ccc(C[C@H](N)C(=O)N4C[C@@H](C)N(C)[C@@H](C)C4)cc3F)c12 [Example 17, (S)-2-amino-3-(3-fluoro-4-((3-methyl-1H-pyrrolo[2,3-b]pyridin-4-yl)oxy)phenyl)-1-((3S,5R)-3,4,5-trimethylpiperazin-1-yl)propan-1-one]
17 | < 3 | < 3 | Cc1c[nH]c2nccc(Oc3ccc(C[C@H](N)C(=O)N4CCC(N(C)C)CC4)cc3F)c12 [Example 14, (S)-2-amino-1-(4-(dimethylamino)piperidin-1-yl)-3-(3-fluoro-4-((3-methyl-1H-pyrrolo[2,3-b]pyridin-4-yl)oxy)phenyl)propan-1-one]
18 | 3 to 30 | 3 to 30 | Cc1c[nH]c2ncnc(Oc3ccc(C[C@H](N)C(=O)N4CCC(Oc5cccnc5)CC4)cc3F)c12 [Example 126, (S)-2-amino-3-(3-fluoro-4-((5-methyl-7H-pyrrolo[2,3-d]pyrimidin-4-yl)oxy)phenyl)-1-(4-(pyridin-3-yloxy)piperidin-1-yl)propan-1-one]
19 | < 3 | 3 to 30 | N[C@@H](Cc1ccc(Oc2ccnc3[nH]cc(CO)c23)c(F)c1)C(=O)NC1CCOCC1 [Example 209, (S)-2-amino-3-(3-fluoro-4-((3-(hydroxymethyl)-1H-pyrrolo[2,3-b]pyridin-4-yl)oxy)phenyl)-N-(tetrahydro-2H-pyran-4-yl)propanamide]
20 | < 3 | < 3 | Cc1c[nH]c2nccc(Oc3ccc(C[C@H](N)C(=O)NC4(CN(C)C)CCCCC4)cc3F)c12 [Example 38, (S)-2-amino-N-(1-((dimethylamino)methyl)cyclohexyl)-3-(3-fluoro-4-((3-methyl-1H-pyrrolo[2,3-b]pyridin-4-yl)oxy)phenyl)propanamide]
21 | 3 to 30 | 3 to 30 | CN(C)CCCNC(=O)[C@@H](N)Cc1ccc(Oc2ccnc3[nH]cc(CO)c23)c(F)c1 [Example 212, (S)-2-amino-N-(3-(dimethylamino)-propyl)-3-(3-fluoro-4-((3-(hydroxymethyl)-1H-pyrrolo[2,3-b]pyridin-4-yl)oxy)phenyl)propanamide]
